The source of these data is patent US6444144B1, “Polyethoxylated ascorbic acid derivatives as a novel antioxidant and process for preparing thereof” (LG Chemical Ltd., priority 1998, dated 2002).

For data set [1], the target named is Tyrosinase extracted from mushrooms. Nature of the data set: Inhibitory activity against tyrosinase. The format is biochemical. The conditions noted are these: L-tyrosine substrate, DOPA cofactor, pH 6.8, 37° C., 10 minutes, absorbance at 475 nm. As for the experimental part:
Tyrosinase extracted from mushrooms was purchases from Sigma Co. First, L-tyrosine as a substrate was dissolved in a 0.05M phosphate buffer solution (pH 6.8) to have a concentration of 1.5 mM. 0.01 ml of this solution was added to a 0.3 ml spectrophotometer cuvette, followed by 0.01 ml of 0.06 mM dihydroxyphenylalamine (DOPA) as a cofactor. To this solution were added compounds of Formulas (II) and (III) and the phosphate buffer solution to have the total volume of 0.1 ml. […] Meanwhile, a blank was prepared by adding only 0.1 ml of the phosphate buffer solution. The reaction was performed at 37° C. for 10 minutes. The absorbance was measured at 475 nm with a spectrophotometer (Beckman DU-7500) to determine the inhibitory rate against tyrosinase. IC50 value was determined as the concentration of the inhibitor whose inhibitory rate against the enzyme amounts to 50%. Inhibitory Rate(%)=[(A−B)/A]×100 wherein A is the absorbance at 475 nm in a solution containing no inhibitor, and B is the absorbance at 475 nm in a solution containing an inhibitor.

A short description of data set [2]: Radical scavenging effect (DPPH method). The settings on record: for radical scavenging effect (in words): comment on Table 2, DPPH, 1 hour and 24 hours; for pIC50: DPPH, absorption at 517 nm. As to the method: Measurement was made using the 1,1-diphenyl-2-picrylhydrazyl (DPPH) method [Blois, M. S. Nature, 1958, 181, 1190]. DPPH is a relatively stable radical with the maximum absorption at 517 nm. The absorption at this wavelength disappears upon removal of the radical. DPPH was purchased from Sigma Co. and dissolved in methanol to make the concentration of 0.5 mM.
First, 100 μl of each solution (10^−l to 10^−6 M) of the individual compounds prepared in examples 1 to 4 were placed in each well of a 96-well plate. After adding 100 μl of DPPH solution and standing the reaction mixture at the room temperature, the absorption at 517 nm was measured for each well using a micro plate reader (BioTeck EL-340). A blank solution was prepared to contain 100 μl of methanol instead of the above compounds. The concentration of the individual compounds was denoted by IC50 at the time when the absorption of the test sample becomes a half of that of the blank solution. The absorption was measured at 1 hour and at 24 hours after treatment.
(Loss of DPPH colour is used to gauge radical scavenging.)

For data set [3] the following is noted: female, naked mouse, 24 h, 5 % (w/v), pH 7.4. As to the method: More specifically, a dorsal skin of 8-weeks aged female mouse (naked mouse) was cut off and then 5% (w/v) solution of the test sample was applied in an amount of 50 μl to the skin having a size of 1.7 cm^2. Using the apparatus for measuring transdermal absorption test (Franz cell), after 24 hours, the absorbed material was extracted from 7 ml of the receptor solution [50 mM PBS buffer solution (pH=7.4) containing 2% Vol PO20 polyethylene oleyl ether (HLB=16)] and then quantitatively analyzed by HPLC.

Setting [4] is: 24 hours after treatment, read-out: Radical Scavenging Effect IC50 After 24 hrs.
Setting [5] is: read-out: Radical Scavenging Effect IC50 After 1 hour, 1 hour after treatment.

pIC50: −log10 of the molar value. Like-named read-outs stand apart in the source and are kept apart here.

The compound 3-O-PEG550-ascorbic acid gave a negative logarithm of the IC50 (pIC50) in data set [1] of 2.15. For the same compound, in data set [2], the “radical scavenging effect (in words)” value is on record as “an increase in the radical scavenging effect with an elapse of time”.

As to `CCOC1=C(O)C(=O)O[C@@H]1[C@@H](O)CO` [3-O-Ethyl-ascorbic acid, reference compound], the pIC50 in data set [1], in data set [2] (setting [4]) and in data set [2] (setting [5]) was 2.01 throughout.

As for 2-O-PEG550-Ascorbic Acid, the negative-log IC50 (pIC50) in data set [1] was 2.15; in data set [2] (setting [4]) it was 2.38; in data set [2] (setting [5]), 2.10. In addition, the “radical scavenging effect (in words)” value in data set [2] is “potent radical scavenging effect in a short time”.

In the case of `O=C1O[C@H]([C@@H](O)CO)C(O)=C1O` [Ascorbic acid], the pIC50 in data set [1] was 3.33; in data set [2] (setting [4]), 2.47; in data set [2] (setting [5]), 2.47. In addition, the “Absorption Rate (%)” value in data set [3] was determined as 1.2%. Also, in data set [3], the “Total Transdermal Absorption Amount” value came out at 0.03 mg.

For the compound 2-O-PEG350-Ascorbic Acid, the results for the pIC50 in data set [1], in data set [2] (setting [4]) and in data set [2] (setting [5]) were 2.71, 2.23 and 2.10, respectively. For the same compound, the “radical scavenging effect (in words)” value in data set [2] is reported as “potent radical scavenging effect in a short time”.

Turning to 3-O-PEG350-Ascorbic Acid, the pIC50 was 2.01 in data set [1], 2.23 in data set [2] (setting [4]) and 1.10 in data set [2] (setting [5]). The “radical scavenging effect (in words)” value in data set [2] is listed as “an increase in the radical scavenging effect with an elapse of time”.

For orientation: pIC50 means the negative decadic logarithm of the IC50, by convention in mol/L.
